test: Comment Code material properties: vapor pressure, ClogP, probability of ingredient color instability, odor detection threshold, melamine formaldehyde PMC headspace response ratio and leakage, liquid dish neat product liquid-air partition coefficient; format: physicochemical; conditions: Table 1 materials; each letter of the code is one property class (vapor pressure, ClogP, color instability, odor detection threshold, PMC headspace ratio, PMC leakage, liquid dish liquid-air partition coefficient)

Compound | Comment Code
O=C1CCCCCC=CCCCCCCCCO1 [Material 771] | DGJ
O=C(/C=C/c1ccccc1)OCc1ccccc1 [Material 650] | DHJ
CCC=CCC=CCCO [Material 929] | ACEFHK
O=CC(=Cc1ccco1)c1ccccc1 [Material 833] | CHJ
CC(C)=C1CCC(C)C2=C(C1)C(C)CC2 (stereo not drawn) [Material 626] | DEFHJKL
CC(=O)c1cc(C(C)(C)C)cc2c1CCC2(C)C [Material 563] | DEFHJK
CC(=O)C1CC/C(C)=C\CC/C(C)=C\C/C=C/1C (stereo not drawn) [Material 1095] | DHJK
CCCCCC1C(=O)CCC1C (stereo not drawn) [Material 1053] | BDFHIJKL
C=C(C)C1CC=C(CO)CC1 (stereo not drawn) [Material 948] | CHIJK
CC(CO)CCCc1ccccc1 (stereo not drawn) [Material 1012] | DEFHJK
CC(C)Cc1ccc2ccccc2n1 [Material 849] | CEFHJK
C=C1CCCC(C)(C)C1C=C(C)C(C)=O (stereo not drawn) [Material 913] | BDHIJK
CCCCCCCCCC=O [Material 584] | ADHKL
O=C(Cc1ccccc1)OCCc1ccccc1 [Material 959] | DHJ
CC1CC=CCCCCCCCC(=O)OCC1 (stereo not drawn) [Material 1099] | DEFHJK
CC(C)=CCCC(C)(O)C1CC=C(C)CC1 (stereo not drawn) [Material 718] | DFHJK
CC1CCC2(O)C(C)(C)C3CCC2(C)C1C3 (stereo not drawn) [Material 933] | DEFHIJK
CC1=CCCC(C)=CCC(C)(C)C=CC1 [Material 706] | DEFHJK
CC1=CC2C(=C(C)CCCC2(C)C)CC1 (stereo not drawn) [Material 625] | DEFHJKL
CC1=CCCC(C)(C)C12CCC(C)O2 (stereo not drawn) [Material 1057] | BDFHIJKL
CC1CC(C)(c2ccccc2)CO1 (stereo not drawn) [Material 1006] | BDEFHJK
CC(=O)O[C@]1(C)CC[C@@]23C[C@@H]1C(C)(C)[C@@H]2CC[C@H]3C [Material 567] | DEFHJK
CCOC(=O)CC(O)(CC(=O)OCC)C(=O)OCC [Material 1091] | CEFGJ
CCC=C(C)C(O)CCCCC (stereo not drawn) [Material 1104] | BDEFHIJK
CC(C)(C)c1ccc2c(c1)OCC(=O)CO2 [Material 1085] | CEFHJ

Next, values leading:

Comment Code | Compound
BDEFGJKL | C=C1CCC23CC1C(C)(C)C2CCC3C (stereo not drawn) [Material 632]
CEFHJK | CC(C)c1ccc2ncccc2c1 [Material 778]
BDEFHIJK | CC(=O)C=CC12OC1(C)CCCC2(C)C (stereo not drawn) [Material 636]
BDEFHJKL | C=C1CCC2C(C3C(C)CCC13)C2(C)C (stereo not drawn) [Material 750]
ADHKL | CCCCC/C=C/CCC=O [Material 1073]
BDHJK | C=C(C)C1CCC(C)(OC(C)=O)CC1 (stereo not drawn) [Material 611]
BCFHJK | CC1(C)C2CC=C(CCC=O)C1C2 (stereo not drawn) [Material 781]
BCGI | COc1ccc(C=O)c(OC)c1OC [Material 733]
ACHKL | CC/C=C\CC/C=C/C=O [Material 1066]
DEFHJ | COC(=O)c1ccccc1N=CC1CC(C)=CC(C)C1 (stereo not drawn) [Material 754]
BDEFHJK | C=C(C)C1CCC2(C)CCC=C(C)C2C1 (stereo not drawn) [Material 774]
ADEFHIJKL | CC12CCC(CC1)C(C)(C)S2 [Material 873]
BDEFHJK | CCC=CCC=CC=CC(=O)OCC [Material 1000]
CHJK | COC1CC2CC1C1CC(C=O)CC21 (stereo not drawn) [Material 1026]
DEFHJ | CC1(C)CCC[C@@]2(C)[C@H]1CC[C@]13CO[C@](C)(CC[C@@H]12)O3 [Material 678]
DEFHJK | CC(C)C1OCCC2(CC3CCC2(C)C3(C)C)O1 (stereo not drawn) [Material 659]
DHJK | CC(C)=C1CCC2=CC(=O)CC(C)C2(C)C1 (stereo not drawn) [Material 684]
DHJK | C=CC(C)=CCC=C(C)CCC=C(C)C=O [Material 691]
BCEFHIJKL | C=C1C(O)CC2(C(C)C)CC12 (stereo not drawn) [Material 1020]
DEFHJK | CC1=CC2C(C(C)C)CCC(C)(O)C2CC1 (stereo not drawn) [Material 1047]
DEFHJK | CC(=O)OC12CCCC(C)(CCC3C1CC3(C)C)C2 (stereo not drawn) [Material 573]
DEFHJ | CCCCCC(=Cc1ccccc1)CO [Material 721]
BDFHJK | CCCCCCCCCC=CC=O [Material 806]
DEFHJK | C[C@@H]1CC[C@H]2C(C)(C)[C@H]3C[C@@]12CC[C@@]3(C)O [Material 569]
DEFHJ | CCCCCC(=Cc1ccccc1)C(OCC)OCC [Material 723]
CEFHJK | CCC(C)(O)CCc1ccccc1 (stereo not drawn) [Material 731]
BDEFHJKL | CC1=C2C(CC1)C(C)CCC1C2C1(C)C (stereo not drawn) [Material 708]

same assay, conditions: cell strings several class symbols together; each letter is one property class of L1

Compound | Comment Code
CCCCCC1CCCC1O (stereo not drawn) [Material 836] | DEFHIKL
CC/C=C\CCOC(=O)C1CC1 [Material 84] | BCEFHIKL
CC(=O)O.CCOc1cc(C=O)ccc1O [Material 379] | CHJ
CC(=O)OC(C)C1CCCC(C)(C)C1 (stereo not drawn) [Material 1011] | ADHIJKL
CCC(=O)OCCc1ccccc1 [Material 835] | BCEFHJK
CCC(C)CC(CC)CCCC(C)O (stereo not drawn) [Material 779] | BDEFGIJKL
CC(C=O)=Cc1ccccc1 [Material 701] | ACHIK
C=C1C2CCC(C)(C)C1CCC(OC)C2 (stereo not drawn) [Material 7] | BDEFHJK
CC(C)C(=O)OCc1ccccc1 [Material 647] | BCHJK
O=C(O)CCc1ccccc1 [Material 255] | CEFHIK
CC/C=C\CCOC(=O)CCCC [Material 535] | BDEFHJKL
C=C(C=O)C(C)CCC=C(C)C (stereo not drawn) [Material 819] | ADFHIJK
CC(=O)OCCC1CCCCC1 [Material 481] | BDEFHJKL
Cc1ccc(C(C)C)cc1O [Material 575] | DHIJK
CCC(C)(CCCC(C)C)OC(C)=O (stereo not drawn) [Material 1055] | ADEFHJKL
CC(=O)C(C)=CC1C(C)=CCCC1(C)C (stereo not drawn) [Material 703] | BDHIJK
CC1CCC2(O)C(C)(C)C3CCC2(C)C1C3 (stereo not drawn) [Material 933] | DEFHIJK
O=C/C=C/c1ccccc1 [Material 554] | ACHIK
COc1ccc(C=O)cc1OC [Material 1118] | BCGIK
CC1C(C)(C)C2=C(C3OC(C)(C)OC3CC2)C1(C)C (stereo not drawn) [Material 23] | DEFHJK
COC(=O)C1(C)CCC(C)CC1 (stereo not drawn) [Material 477] | ADEFHIJKL
CCCc1ccc(OC)cc1 [Material 987] | ADEFHKL
CC(=O)O[C@]1(C)CC[C@@]23C[C@@H]1C(C)(C)[C@@H]2CC[C@H]3C [Material 567] | DEFHJK

Continued, values first:

Comment Code | Compound
BDEFGJKL | C=C1CCC23CC1C(C)(C)C2CCC3C (stereo not drawn) [Material 632]
ACEFHIKL | CCC/C=C\CO [Material 547]
CFHIJK | CC12CCCC(C)(CC1)C2=NO [Material 921]
BDEFHJKL | C=C1CCC2C(C3C(C)CCC13)C2(C)C (stereo not drawn) [Material 750]
BDFHIJKL | CCOC(=O)C(C)C1CCCCC1 (stereo not drawn) [Material 412]
ACEFHKL | CCC/C=C\CCOC(C)=O [Material 882]
BDEFHJKL | CC(=O)OCCCCCCC(C)C [Material 204]
BCHIJKL | CC(C)=CCCC(C)CCO (stereo not drawn) [Material 900]
BDHIJK | CC=CC(=O)C1C(C)=CCCC1(C)C (stereo not drawn) [Material 1074]
ACHK | COc1ccccc1C=CC=O [Material 26]
ACGIJKL | CC(C)(C)[C@@H]1CCCC[C@H]1O [Material 1071]
BCHIK | C=Cc1ccc(O)cc1 [Material 789]
BCFHIJKL | CCCCCC1=C(C)CCC1=O [Material 438]
BDEFGIJKL | CCC(C)(O)CCCC(C)C (stereo not drawn) [Material 1054]
DEFHJ | CC1(C)CCC[C@@]2(C)[C@H]1CC[C@]13CO[C@](C)(CC[C@@H]12)O3 [Material 678]
BDEFHJK | CC(C)C1OCCC2(CC3CCC2(C)C3(C)C)O1 (stereo not drawn) [Material 659]
DHJK | CC(C)=C1CCC2=CC(=O)CC(C)C2(C)C1 (stereo not drawn) [Material 684]
BDEFGIKL | CC(C)CCCCCCO [Material 205]
ADEFHIKL | CCCCCCOC(=O)CC [Material 264]
BCEFGJKL | CC(C)=CCCC(C)CCOC=O (stereo not drawn) [Material 512]
DEFHJK | CC(=O)OC12CCCC(C)(CCC3C1CC3(C)C)C2 (stereo not drawn) [Material 573]
BDEFHIJKL | CC(=O)OC(C)(C)C1CCC(C)CC1 (stereo not drawn) [Material 447]
DEFHJK | C[C@@H]1CC[C@H]2C(C)(C)[C@H]3C[C@@]12CC[C@@]3(C)O [Material 569]
DFHJ | CC(C)=CCCC(C)CCOC(=O)c1ccccc1 (stereo not drawn) [Material 515]
BDEFHJKL | CC1=C2C(CC1)C(C)CCC1C2C1(C)C (stereo not drawn) [Material 708]

same assay, conditions: letter codes A-L: vapor pressure, ClogP, probability of ingredient color instability, odor detection threshold, PMC headspace response ratio, PMC leakage, liquid dish liquid-air partition coefficient; Table 1 materials with at least one MORV from 1 to 5

Compound | Comment Code
COCc1ccc(O)c(OC)c1 [Material 1113] | CGIK
CC/C=C/CC/C=C\C#N [Material 1138] | ACEFHKL

Reference: patent US20160089464A1, “MALODOR REDUCTION COMPOSITIONS” (The Procter & Gamble Company, priority 2014, published 2016)
